From patent US6784153B1, “Methods of homing molecules to lung using membrane dipeptidase” (The Burnham Institute, priority 1998, dated 2004) come the findings set out here.

Common to all, as to design: species or system mice
One assay deals with lung. Description: in vivo homing of phage displaying peptides to lung. To be noted: for % OF MOTIF AMONG ALL CLONES: LUNG; for LUNG/BRAIN RATIO: LUNG section; for enriched in lung over unselected phage: individually amplified phage, FIG. 2; for enrichment in lung as compared to unselected phage: mouse, in vivo. The protocol:
For lung and pancreas, a mixture of phage libraries containing 10^10 TU was diluted in 200 μl DMEM and injected into the tail vein of anesthetized BALB/c mice (2 month old; Harlan Sprague Dawley; San Diego Calif.); AVERTIN (0.017 ml/g) was used as anesthetic (Pasqualini and Ruoslahti, supra, 1996). After 1-4 minutes, mice were snap frozen in liquid nitrogen or, after about 5 minutes of phage circulation, the mice were perfused through the heart with 5-10 ml of DMEM (SIGMA; St. Louis Mo.). To recover the phage, the organs from the perfused mice or partially thawed organs from snap frozen mice were collected and weighed, then were homogenized in 1 ml DMEM-PI (DMEM containing protease inhibitors (PI); phenylmethyl sulfonyl fluoride (PMSF; 1 mM), aprotinin (20 μg/ml), leupeptin (1 μg/ml)).
(§1) Organ samples were washed 3 times with ice cold DMEM-PI containing 1% bovine serum albumin (BSA), then directly incubated with 1 ml K91-kan bacteria for 1 hr. Ten ml NZY medium containing 0.2 μg/ml tetracycline (NZY/tet) was added to the bacterial culture, the mixture was incubated in a 37° C. shaker for 1 hr, then 200 μl aliquots were plated in agar plates containing 40 μg/ml tetracycline (tet/agar).
(§2) Approximately 250 to 300 individual bacterial colonies containing phage recovered from the various organs or tissues were grown for 16 hr in 5 ml NZY/tet. In some experiments, approximately 1000 individual bacteria containing phage were picked and the phage were amplified in 2 ml of NZY/tet or the entire plate containing phage was scraped, pooled and grown in bulk and processed for injection. Where phage were cultured separately, the cultures were pooled and the phage were injected into mice or rats as described above for a second round of in vivo panning. In some experiments, a third or fourth round of panning was performed. Phage DNA was purified from individual bacterial colonies obtained and the DNA sequences encoding the peptides expressed by selected phage were determined (see Koivunen et al., supra, 1994b).
After two or three rounds of in vivo panning of mice injected with a cyclic CX3CX3CX3C (SEQ ID NO: 25) or a cyclic CX6C (SEQ ID NO: 26) phage display library, four peptides that homed to lung were identified.
To determine the specificity of lung homing of the individual peptides identified, phage displaying the peptides were amplified individually, diluted to the same input titer and administered to mice. Following administration, control kidney and brain organ was removed and the number of TU of phage in lung, kidney and brain was determined. The results shown in FIG. 2 reveal that 10× and 35× more phage having the peptide sequence CGFECVRQCPERC (SEQ ID NO: 1; GFE-1) bound to lung than to kidney and brain, respectively. […] The lung homing peptides CGFECVRQCPERC (SEQ ID NO: 1; GFE-1), CGFELETC (SEQ ID NO: 2; GFE-2), CTLRDRNC (SEQ ID NO: 15) and CIGEVEVC (SEQ ID NO: 16) are enriched in lung at 35×, 9×, 6× and 5×, respectively, over unselected phage (see FIG. 2).

The subject of a further assay is prostate. The experiment in a line: in vivo panning of X7 library, prostate. To be noted: for % OF MOTIF AMONG ALL CLONES: PROSTATE; for prostate/brain homing ratio: PROSTATE section, prostate as compared to brain; for enrichment in homing to prostate as compared to brain: mouse, in vivo. The procedure: (§3) Following various in vivo panning screens, hundreds of thousands to millions of phage expressing homing peptides were recovered from the respective organ or tissue. Generally, the phage collected from a round of in vivo panning were plated on agar, about 250 to 300 clones were selected, grown in 5 ml cultures, then pooled and readministered for a subsequent round of in vivo panning (“regular method”). However, in some experiments, 1000 clones were selected, grown in 2 ml cultures, then pooled and administered for a subsequent round of screening; or the entire agar plate was scraped and all of the phage were cultured together and administered for a subsequent round of screening. The peptide inserts of various isolated phage were determined such that, of the millions of phage that homed, only a small number of sequences were identified.
The invention also provides prostate homing peptides such as SMSIARL (SEQ ID NO: 21) and VSFLEYR (SEQ ID NO: 22), which were identified by injection of an X7 (SEQ ID NO: 29) library into mice (Table 7). The peptides were isolated by the regular method.
as §1, §2

For a further assay, the system named is gut. The experiment in a line: in vivo panning of X7 library, gut. Conditions: for gut/brain enrichment ratio: GUT section, gut as compared to brain; for % OF MOTIF AMONG ALL CLONES: GUT, of 40 clones sequenced. The protocol:
as §3
The invention also provides gut homing peptides such as YSGKWGK (SEQ ID NO: 9) and YSGKWGW (SEQ ID NO: 156), which were identified by injection of an X7 (SEQ ID NO: 29) library into mice (Tables 1 and 4) and differ only in the last amino acid position. The peptides were isolated by the regular method. The gut homing peptide YSGKWGK (SEQ ID NO: 9) was present in 22% of 40 clones sequenced and was enriched 30-fold in gut as compared to brain (Table 1). In addition, gut homing peptides such as QVRRVPE (SEQ ID NO: 155) and VRRGSPQ (SEQ ID NO: 164), which share a VRR motif, were identified, as were the peptides VRRGSPQ (SEQ ID NO: 164), GGRGSWE (SEQ ID NO: 167) and FRVRGSP (SEQ ID NO: 169), which share an RGS motif.
as §1, §2

Another assay deals with skin. Description: in vivo homing of phage displaying peptides to skin. The protocol: For in vivo panning of skin, two month old BALB/c nude mice were used to avoid contamination by hair. The mice were injected intravenously with phage as described above and, after perfusion through the heart, the skin was removed in large sections and placed on an ice cold plate with the hypodermis facing up. The skin was scraped with a scalpel to remove mostly hypodermis, which was then processed for phage recovery as described below.
as §2
in After two or three rounds of in vivo panning of mice injected with a cyclic CX3CX3CX3C (SEQ ID NO: 25) phage display library, the peptide sequence CVALCREACGEGC (SEQ ID NO: 3), which appeared repeatedly in skin, was identified (Table 1). To determine the specificity of skin homing of the sequence CVALCREACGEGC (SEQ ID NO: 3), phage displaying the peptide was amplified individually, diluted to the same input titer and administered to mice. Following administration, control kidney and brain organ were removed and the number of TU of phage in skin, kidney and brain was determined.
Peptides that were identified more than one time during screening are indicated by an asterisk. For example, 14% of recovered CX3CX3CX3C (SEQ ID NO: 25) phage that homed to head skin had the sequence CVDVCCDGCPVCC (SEQ ID NO: 437). Phage having the sequence RVPLSGDVEH (SEQ ID NO: 438), LRVMSFTSGQ (SEQ ID NO: 439), or RFSVGSLFGS (SEQ ID NO: 440) each constituted 14% of recovered CX10C (SEQ ID NO: 30) phage that homed to head skin.

The test system of a further assay is ovary. Description: in vivo panning of X7 library, ovary. To be noted: for ovary/brain enrichment ratio: OVARY section, ovary as compared to brain; for % OF MOTIF AMONG ALL CLONES: OVARY, of 40 clones sequenced; for enrichment in ovary as compared to brain: mouse, in vivo. The procedure: as §3
Also provided are ovary homing peptides such as RVGLVAR (SEQ ID NO: 11) and EVRSRLS (SEQ ID NO: 10), which were identified by injection of an X7 (SEQ ID NO: 29) library into mice (Table 8). The peptides were isolated by the regular method.
as §1, §2

Regarding “CKWSRLHSC [peptide from phage recovered from lung]”, in the assay with lung, the “% OF MOTIF AMONG ALL CLONES” value was 11% and the “LUNG/BRAIN RATIO” value was 3.

On to “CLRPYLNC [peptide from phage recovered from lung]”, for which, in the assay with lung, the “% OF MOTIF AMONG ALL CLONES” value amounted to 10% and the “LUNG/BRAIN RATIO” value stood at 6.

Consider “VSFLEYR [peptide from phage recovered from prostate]”, for which, in the assay on prostate, the “% OF MOTIF AMONG ALL CLONES” value is on record as 6%, the prostate/brain homing ratio came to 17 and the “enrichment in homing to prostate as compared to brain” value came out at 17 fold.

As for “SRRQPLS [peptide from phage recovered from gut]”, in the assay on gut, the gut/brain enrichment ratio is 2 and the “% OF MOTIF AMONG ALL CLONES” value turned out to be 11%.

With “CRPWHNQAHTEC [peptide from phage recovered from lung]”, in the assay on lung, the “% OF MOTIF AMONG ALL CLONES” value stood at 14% and the “LUNG/BRAIN RATIO” value was 5.

On to “LRVMSFTSGQ [peptide from phage recovered from skin]”, for which the “% of recovered CX10C phage that homed to head skin” value with skin (head skin) is reported as 14%.

Turning to “MSPQLAT [peptide from phage recovered from gut]”, the “% OF MOTIF AMONG ALL CLONES” value with gut is 11%.

As for “CTVNEAYKTRMC [peptide from phage recovered from lung]”, in the assay on lung, the “% OF MOTIF AMONG ALL CLONES” value is 22% and the “LUNG/BRAIN RATIO” value amounted to 3.

Regarding “CERVVGSSC [peptide from phage recovered from lung]”, in the assay on lung, the “% OF MOTIF AMONG ALL CLONES” value is 9% and the “LUNG/BRAIN RATIO” value worked out at 4.

Take YSGKWGK [gut homing peptide]: in the assay on gut, the gut/brain enrichment ratio is 30 and the “% OF MOTIF AMONG ALL CLONES” value came to 22%. Besides, the “enriched in gut as compared to brain” value with gut (mouse, in vivo) stood at 30 fold.

As to “EVRSRLS [peptide from phage recovered from ovary]”, in the assay with ovary, the ovary/brain enrichment ratio was 3, the “% OF MOTIF AMONG ALL CLONES” value is given as 22% and the “enrichment in ovary as compared to brain” value came to 3 fold.

GISALVLS: the “% OF MOTIF AMONG ALL CLONES” value with gut is on record as 11%.

Turning to CTLRDRNC [lung homing peptide], in the assay on lung, the “% OF MOTIF AMONG ALL CLONES” value was found to be 10%, the “LUNG/BRAIN RATIO” value was found to be 8, the “enriched in lung over unselected phage” value is on record as 6 × and the “enrichment in lung as compared to unselected phage” value was determined as 8 fold.

With “CSSGCSKNCLEMC [peptide from phage recovered from skin]”, the skin/brain phage ratio in the assay on skin (SKIN section) is 2.

For the substance “RVGLVAR [peptide from phage recovered from ovary]”, in the assay on ovary, the ovary/brain enrichment ratio was 5, the “% OF MOTIF AMONG ALL CLONES” value was determined as 22% and the “enrichment in ovary as compared to brain” value was 5 fold.

For “CRLRSYGTLSLC [peptide from phage recovered from lung]”, in the assay with lung, the “% OF MOTIF AMONG ALL CLONES” value is 5% and the “LUNG/BRAIN RATIO” value turned out to be 0.4.

Regarding “CVDVCCDGCPVCC [peptide from phage recovered from skin]”, in the assay with skin (head skin), the “% of recovered CX3CX3CX3C phage that homed to head skin” value was determined as 14%.

For “CWRGDRKIC [peptide from phage recovered from lung]”, in the assay with lung, the “% OF MOTIF AMONG ALL CLONES” value is reported as 8% and the “LUNG/BRAIN RATIO” value worked out at 2.

On to “RGRWLAL [peptide from phage recovered from prostate]”, for which, in the assay with prostate, the “% OF MOTIF AMONG ALL CLONES” value came out at 6%.

In the case of “RVPLSGDVEH [peptide from phage recovered from skin]”, the “% of recovered CX10C phage that homed to head skin” value in the assay on skin (head skin) amounted to 14%.

Turning to CGKRYRNC, in the assay with lung, the “% OF MOTIF AMONG ALL CLONES” value was determined as 5% and the “LUNG/BRAIN RATIO” value amounted to 5.

For the substance “RFSVGSLFGS [peptide from phage recovered from skin]”, the “% of recovered CX10C phage that homed to head skin” value in the assay with skin (head skin) was found to be 14%.

Consider “SMSIARL [peptide from phage recovered from prostate]”, for which, in the assay on prostate, the “% OF MOTIF AMONG ALL CLONES” value was 6%, the prostate/brain homing ratio is recorded as 34 and the “enrichment in homing to prostate as compared to brain” value is listed as 34 fold.

Regarding “CLAKENVVC [peptide from phage recovered from lung]”, in the assay with lung, the “% OF MOTIF AMONG ALL CLONES” value stood at 13% and the “LUNG/BRAIN RATIO” value amounted to 2.

With “CIGEVEVC [peptide from phage recovered from lung]”, in the assay on lung, the “% OF MOTIF AMONG ALL CLONES” value was determined as 5%, the “LUNG/BRAIN RATIO” value is given as 6, the “enriched in lung over unselected phage” value turned out to be 5 × and the “enrichment in lung as compared to unselected phage” value was 6 fold.

Regarding “CGATCEMQCPSGC [peptide from phage recovered from skin]”, the “% of recovered CX3CX3CX3C phage, homing to tail skin” value with skin (tail skin) turned out to be 12%.
